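48-hour exposure; five concentrations; linearly interpolated endpoints. GI50 marks 50% less growth.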 Activity calls are given as the source filed them. No stated cut-off is given here; in the data, active = GI50 up to about 1.1 µM and inactive = higher.
Tests used:
Assay in all cases: inhibition of tumour cell growth, NCI panel, 48 h
NCI-H23 = test system: NCI-H23
NCI-H460 = test system: NCI-H460
SR = test system: SR
EKVX = test system: EKVX
TK-10 = test system: TK-10
SNB-75 = test system: SNB-75
SNB-19 = test system: SNB-19
KM12 = test system: KM12
UO-31 = test system: UO-31
ACHN = test system: ACHN
DLD-1 = test system: DLD-1
HCT-116 = test system: HCT-116
HOP-62 = test system: HOP-62
XF498 = test system: XF498
NCI-H522 = test system: NCI-H522
RXF 631 = test system: RXF 631
HCT-15 = test system: HCT-15
HOP-18 = test system: HOP-18
SK-OV-3 = test system: SK-OV-3
OVCAR-4 = test system: OVCAR-4
M14 = test system: M14
IGROV-1 = test system: IGROV-1
NCI-H226 = test system: NCI-H226
K562 = test system: K562
SK-MEL-2 = test system: SK-MEL-2
SN12C = test system: SN12C
SK-MEL-28 = test system: SK-MEL-28
OVCAR-5 = test system: OVCAR-5
M19-MEL = test system: M19-MEL
SK-MEL-5 = test system: SK-MEL-5
HL-60 = test system: HL-60
SF-268 = test system: SF-268
SNB-78 = test system: SNB-78
SF-539 = test system: SF-539
OVCAR-3 = test system: OVCAR-3
A498 = test system: A498
UACC-62 = test system: UACC-62
LXFL 529 = test system: LXFL 529
MOLT-4 = test system: MOLT-4
HCC 2998 = test system: HCC 2998
A549 = test system: A549
OVCAR-8 = test system: OVCAR-8
Malme-3M = test system: Malme-3M
HOP-92 = test system: HOP-92
RXF 393 = test system: RXF 393
UACC-257 = test system: UACC-257
786-0 = test system: 786-0
DMS-114 = test system: DMS-114
HT-29 = test system: HT-29
RPMI-8226 = test system: RPMI-8226
KM-20L2 = test system: KM-20L2
CCRF-CEM = test system: CCRF-CEM
DMS-273 = test system: DMS-273
SF-295 = test system: SF-295
LOX IMVI = test system: LOX IMVI
COLO 205 = test system: COLO 205
CAKI-1 = test system: CAKI-1
U-251 = test system: U-251
SW-620 = test system: SW-620

For `C/C(CC(=O)NC1=CC=C(NC(=O)C/C(C)=N\Nc2ccccc2)CC1)=N/Nc1ccccc1`, the GI50 (NCI-H23) was > 100 µM (inactive), the GI50 (NCI-H460) was > 100 µM (inactive) and the GI50 (SR) was 37.8 µM (inactive). For the same compound, the GI50 (EKVX) was > 100 µM (inactive), the GI50 (TK-10) was > 100 µM (inactive) and the GI50 (SNB-75) was > 100 µM (inactive). For the same compound, the GI50 (SNB-19) was > 100 µM (inactive), the GI50 (KM12) was > 100 µM (inactive) and the GI50 (UO-31) was > 100 µM (inactive). The GI50 (ACHN) was > 100 µM (inactive), the GI50 (DLD-1) was > 100 µM (inactive) and the GI50 (HCT-116) was > 100 µM (inactive). For the same compound, the GI50 (HOP-62) was > 100 µM (inactive), the GI50 (XF498) was > 100 µM (inactive) and the GI50 (NCI-H522) was 72.6 µM (inactive). For the same compound, the GI50 (RXF 631) was 41.4 µM (inactive), the GI50 (HCT-15) was 29.7 µM and the GI50 (HOP-18) was > 100 µM (inactive). For the same compound, the GI50 (SK-OV-3) was > 100 µM (inactive), the GI50 (OVCAR-4) was > 100 µM (inactive) and the GI50 (M14) was > 100 µM (inactive). The GI50 (IGROV-1) was > 100 µM (inactive), the GI50 (NCI-H226) was > 100 µM (inactive) and the GI50 (K562) was 75.7 µM (inactive). The GI50 (SK-MEL-2) was > 100 µM (inactive), the GI50 (SN12C) was > 100 µM (inactive) and the GI50 (SK-MEL-28) was > 100 µM (inactive). The GI50 (OVCAR-5) was > 100 µM (inactive), the GI50 (M19-MEL) was > 100 µM (inactive) and the GI50 (SK-MEL-5) was > 100 µM (inactive). For the same compound, the GI50 (HL-60) was 50.1 µM (inactive), the GI50 (SF-268) was > 100 µM (inactive) and the GI50 (SNB-78) was > 100 µM (inactive). The GI50 (SF-539) was > 100 µM (inactive), the GI50 (OVCAR-3) was > 100 µM (inactive) and the GI50 (A498) was > 100 µM (inactive). For the same compound, the GI50 (UACC-62) was > 100 µM (inactive), the GI50 (LXFL 529) was > 100 µM (inactive) and the GI50 (MOLT-4) was > 100 µM (inactive). The GI50 (HCC 2998) was > 100 µM (inactive), the GI50 (A549) was > 100 µM (inactive) and the GI50 (OVCAR-8) was > 100 µM (inactive). For the same compound, the GI50 (Malme-3M) was > 100 µM (inactive), the GI50 (HOP-92) was > 100 µM (inactive) and the GI50 (RXF 393) was > 100 µM (inactive). The GI50 (UACC-257) was > 100 µM (inactive), the GI50 (786-0) was > 100 µM (inactive) and the GI50 (DMS-114) was > 100 µM (inactive). For the same compound, the GI50 (HT-29) was > 100 µM (inactive), the GI50 (RPMI-8226) was > 100 µM (inactive) and the GI50 (KM-20L2) was > 100 µM (inactive). For the same compound, the GI50 (CCRF-CEM) was > 100 µM (inactive), the GI50 (DMS-273) was 27 µM (inactive) and the GI50 (SF-295) was > 100 µM (inactive). The GI50 (LOX IMVI) was 70.8 µM (inactive), the GI50 (COLO 205) was 27.1 µM (inactive) and the GI50 (CAKI-1) was > 100 µM (inactive). The GI50 (U-251) was > 100 µM (inactive).

With `Cc1ccc(S(=O)(=O)OC2CS[S+]([O-])CC2OS(=O)(=O)c2ccc(C)cc2)cc1` (centres undefined) the GI50 (NCI-H23) was 14.7 µM (inactive), the GI50 (NCI-H460) was 22.3 µM (inactive) and the GI50 (SR) was 1.83 µM (inactive). For the same compound, the GI50 (EKVX) was 21.1 µM (inactive), the GI50 (TK-10) was 15.1 µM (inactive) and the GI50 (SNB-75) was 20.6 µM (inactive). The GI50 (SNB-19) was 17.6 µM (inactive), the GI50 (KM12) was 17.3 µM (inactive) and the GI50 (UO-31) was 18.9 µM (inactive). For the same compound, the GI50 (ACHN) was 17 µM (inactive), the GI50 (DLD-1) was 9.27 µM (inactive) and the GI50 (HCT-116) was 13.9 µM (inactive). The GI50 (HOP-62) was 20.8 µM (inactive), the GI50 (XF498) was 13.6 µM (inactive) and the GI50 (NCI-H522) was 10.3 µM (inactive). For the same compound, the GI50 (RXF 631) was 16.6 µM (inactive), the GI50 (HCT-15) was 19 µM and the GI50 (HOP-18) was 22.6 µM (inactive). For the same compound, the GI50 (SK-OV-3) was 21.7 µM (inactive), the GI50 (OVCAR-4) was 15.6 µM (inactive) and the GI50 (M14) was 14.3 µM (inactive). The GI50 (IGROV-1) was 18 µM (inactive), the GI50 (NCI-H226) was 19.4 µM (inactive) and the GI50 (K562) was 4.02 µM (inactive). For the same compound, the GI50 (SN12C) was 15.2 µM (inactive), the GI50 (SK-MEL-28) was 15.6 µM (inactive) and the GI50 (OVCAR-5) was 18.2 µM (inactive). For the same compound, the GI50 (M19-MEL) was 16.6 µM (inactive), the GI50 (SK-MEL-5) was 16 µM (inactive) and the GI50 (HL-60) was 6.01 µM (inactive). For the same compound, the GI50 (SF-268) was 17 µM (inactive), the GI50 (SNB-78) was 17 µM (inactive) and the GI50 (SF-539) was 15.2 µM (inactive). For the same compound, the GI50 (OVCAR-3) was 17.4 µM (inactive), the GI50 (A498) was 16.1 µM (inactive) and the GI50 (UACC-62) was 15.3 µM (inactive). For the same compound, the GI50 (LXFL 529) was 14.5 µM (inactive), the GI50 (SW-620) was 6.55 µM (inactive) and the GI50 (MOLT-4) was 2.23 µM (inactive). The GI50 (HCC 2998) was 17.1 µM (inactive), the GI50 (A549) was 19 µM (inactive) and the GI50 (OVCAR-8) was 10.6 µM (inactive). For the same compound, the GI50 (Malme-3M) was 14.6 µM (inactive), the GI50 (HOP-92) was 13 µM (inactive) and the GI50 (RXF 393) was 8.22 µM (inactive). The GI50 (UACC-257) was 14.6 µM (inactive), the GI50 (786-0) was 16.8 µM (inactive) and the GI50 (DMS-114) was 17.9 µM (inactive). The GI50 (HT-29) was 29.6 µM (inactive), the GI50 (RPMI-8226) was 5.74 µM (inactive) and the GI50 (KM-20L2) was 17.7 µM (inactive). For the same compound, the GI50 (DMS-273) was 18.9 µM (inactive), the GI50 (SF-295) was 15.7 µM (inactive) and the GI50 (LOX IMVI) was 12.1 µM (inactive). For the same compound, the GI50 (COLO 205) was 11.8 µM (inactive), the GI50 (CAKI-1) was 12.9 µM (inactive) and the GI50 (U-251) was 14.8 µM (inactive).

With `CC(=O)c1ccc(-c2ccc(C(C)=O)s2)s1` the GI50 (NCI-H23) was > 100 µM (inactive), the GI50 (NCI-H460) was > 100 µM (inactive) and the GI50 (SR) was > 100 µM (inactive). For the same compound, the GI50 (EKVX) was > 100 µM (inactive), the GI50 (TK-10) was > 100 µM (inactive) and the GI50 (SNB-75) was > 100 µM (inactive). For the same compound, the GI50 (SNB-19) was > 100 µM (inactive), the GI50 (KM12) was > 100 µM (inactive) and the GI50 (UO-31) was > 100 µM (inactive). For the same compound, the GI50 (ACHN) was > 100 µM (inactive), the GI50 (DLD-1) was > 100 µM (inactive) and the GI50 (HCT-116) was > 100 µM (inactive). The GI50 (HOP-62) was > 100 µM (inactive), the GI50 (XF498) was > 100 µM (inactive) and the GI50 (NCI-H522) was > 100 µM (inactive). For the same compound, the GI50 (RXF 631) was > 100 µM (inactive), the GI50 (HCT-15) was greater than 100 µM and the GI50 (HOP-18) was > 100 µM (inactive). For the same compound, the GI50 (SK-OV-3) was > 100 µM (inactive), the GI50 (OVCAR-4) was > 100 µM (inactive) and the GI50 (M14) was > 100 µM (inactive). For the same compound, the GI50 (IGROV-1) was > 100 µM (inactive), the GI50 (NCI-H226) was 19 µM (inactive) and the GI50 (K562) was > 100 µM (inactive). The GI50 (SK-MEL-2) was > 100 µM (inactive), the GI50 (SN12C) was > 100 µM (inactive) and the GI50 (SK-MEL-28) was 1.81 µM (inactive). For the same compound, the GI50 (OVCAR-5) was > 100 µM (inactive), the GI50 (M19-MEL) was > 100 µM (inactive) and the GI50 (SK-MEL-5) was > 100 µM (inactive). For the same compound, the GI50 (HL-60) was > 100 µM (inactive), the GI50 (SF-268) was 1.87 µM (inactive) and the GI50 (SNB-78) was > 100 µM (inactive). The GI50 (SF-539) was > 100 µM (inactive), the GI50 (OVCAR-3) was > 100 µM (inactive) and the GI50 (A498) was 1.94 µM (inactive). The GI50 (UACC-62) was > 100 µM (inactive), the GI50 (LXFL 529) was > 100 µM (inactive) and the GI50 (SW-620) was > 100 µM (inactive). For the same compound, the GI50 (MOLT-4) was > 100 µM (inactive), the GI50 (HCC 2998) was > 100 µM (inactive) and the GI50 (A549) was > 100 µM (inactive). The GI50 (OVCAR-8) was > 100 µM (inactive), the GI50 (Malme-3M) was > 100 µM (inactive) and the GI50 (HOP-92) was > 100 µM (inactive). For the same compound, the GI50 (RXF 393) was > 100 µM (inactive), the GI50 (UACC-257) was > 100 µM (inactive) and the GI50 (786-0) was > 100 µM (inactive). The GI50 (DMS-114) was 1.43 µM (inactive), the GI50 (HT-29) was > 100 µM (inactive) and the GI50 (RPMI-8226) was > 100 µM (inactive). The GI50 (KM-20L2) was > 100 µM (inactive), the GI50 (CCRF-CEM) was > 100 µM (inactive) and the GI50 (DMS-273) was > 100 µM (inactive). The GI50 (SF-295) was > 100 µM (inactive), the GI50 (LOX IMVI) was > 100 µM (inactive) and the GI50 (COLO 205) was > 100 µM (inactive). The GI50 (CAKI-1) was > 100 µM (inactive) and the GI50 (U-251) was > 100 µM (inactive).

Source: ChEMBL document CHEMBL1201862, “PubChem BioAssay data set” (2004)
